Experimental data taken from patent publication US20210113602A1, “USE OF 6-THIO-2'-DEOXYGUANOSINE (6-THIO-dG) TO TREAT MELANOMA” (The Board of Regents of the University of Texas System, priority 2018, published 2021).
Entries after “also recorded” stand apart in the source; their conditions may differ.

Columns and labels:
[1] = tested on: NRAS mutant melanoma spheroids; assay: 3D collagen-embedded melanoma spheroids, live/dead staining; assay type: cell-based, human; conditions: 6-thio-dG (5 μM) and Ganetespib (5 μM); day 7
Method: (FIG. 6a) Collagen-embedded melanoma spheroids were treated with DMSO, 6-thio-dG (5 μM) and Gam (5 μM) as in FIGS. 4a-c. On day 7, spheroids were stained with Calcein AM (live cells;
green) and EtBr (dead cells; red) and imaged using an inverted microscope (4×; scale bar=250 μm). Representative merged images from three independent experiments are shown. (FIGS. 6b-d) NRAS mutant M93-047 tumor bearing mice were treated with vehicle control, 6-thio-dG (2.5 mg/kg; ip qd), Gam (12.5 mg/kg; ip qod), or the combination of the two drugs for the indicated days (n=7 mice/group). (FIG. 6b) Average tumor volume over time±SEM is represented. (FIG. 6c) Average tumor weight±SEM after 14 days of treatment. P values were calculated using unpaired Student's t-test. * p<0.05, **p<0.01, ***p<0.005, when comparing vehicle control vs. combination treatment groups. […] Kaplan Meier survival curves of mice treated for 14 days. p-values were calculated by Mantel-Cox logrank test; * p<0.05, **p<0.01, ***p<0.005. (FIG. 6e) Animal weight (grams) before treatment (start of TX) and at the end of the study (End of TX) was assessed and recorded for every mouse enrolled in the study. […] Statistical significance was assessed by unpaired Student's t-test.
Supplementary FIGS. 10a-b. […] Percent cell death was determined by flow cytometry following staining of cells with Annexin V and Propidium iodide. […]

[2] = tested on: SOD2; conditions: cited from earlier work
[3] = tested on: KRAS mutant HCT116 cells; assay: Cell death, Annexin V/PI; assay type: cell-based, human; conditions: 1 μM 6-thio-dG, 5 μM Gam
[4] = tested on: NRAS mutant SKNAS cells; assay: Cell death, Annexin V/PI; assay type: cell-based, human; conditions: single agents or combination; 1 μM 6-thio-dG, 5 μM Gam
[5] = tested on: NRAS mutant melanoma cells; assay: Cell death by flow cytometry (PSVue or Annexin V/PI); assay type: cell-based; conditions: TERT shRNA 7 dpi; 5 μM Gamitrinib for 48 h
Method: (FIG. 2d) NRASmut melanoma cells and non-transformed human fibroblasts were treated with 1 or 5 μM 6-thio-dG for 7 or 14 days. Cell death was assessed by PSVUe staining. Percent of apoptotic cells is shown. […] (FIGS. 2f-g) Cells were treated with 1 μM 6-thio-dG for 7 days. […] Data represent average from three independent experiments±SEM. *p<0.05; **p<0.01; ***p<0.005 in unpaired Student's t-test.
(FIG. 3f) SOD2 was silenced using shRNA. Transduced M93-047 cells were treated with DMSO or 1 μM of 6-thio-dG and cell death was assessed by Annexin V/PI straining. (FIG. 3g) M93-047 cells were transduced with a SOD2 lentiviral construct or empty vector control (pLX304). Transduced cells were treated with increasing doses (1, 2.5 and 5 μM) of 6-thio-dG for 7 days and cell death was assessed. Data represent average from three independent experiments±SEM. *p<0.05; **p<0.01; ***p<0.005 in unpaired Student's t-test.
(FIG. 4a) NRASmut melanoma cells transduced with TERT shRNA were treated 7 days post infection with 5 μM Gamitrinib (Gam) for 48 h. Cell death was assessed by Annexin V and PI staining. (FIG. 4b) NRASmut melanoma cells and non-transformed fibroblasts were treated with 1 μM 6-thio-dG for 5 days. At day 5, culture medium was replaced and cells treated with 1 μM 6-thio-dG plus 5 μM Gam for two more days. Cells were stained with Annexin V and PI and percent cell death was determined by flow cytometry. […] Data represent average of three independent experiments ±SEM. P values were calculated using unpaired Student's t-test; * p<0.05; ***p<0.005.
(Supplementary FIG. 10a) NRASmut melanoma cells were treated with 6-thio-dG (1 μ) for 7 days total. At day 5, culture medium was replaced and cells were treated with 1 μM 6-thio-dG plus 1 mM Phenformin for two more days. Percent cell death was determined by flow cytometry following staining of cells with Annexin V and Propidium iodide. Data represent average of three independent experiments +/−SEM. *p<0.05 in unpaired Student's t-test.

[6] = tested on: KRAS mutant A549 cells; assay: Cell death, Annexin V/PI; assay type: cell-based, human; conditions: 1 μM 6-thio-dG, 5 μM Gam
[7] = tested on: BRAF-mutant melanoma; conditions: cited from earlier work
[8] = tested on: NRAS-WT/BRAF-mut melanoma cells; assay: Cell death, Annexin V/PI; assay type: cell-based, human
[9] = tested on: NRAS-WT/BRAF-WT melanoma cells; assay: Cell death, Annexin V/PI; assay type: cell-based, human; conditions: single agents or combination; 1 μM 6-thio-dG, 5 μM Gam
[10] = tested on: NRAS mutant cells; conditions: cited from earlier work
[11] = tested on: NRAS mutant melanoma cells; assay: Telomere dysfunction-induced foci (TIF) assay; assay type: cell-based, human; conditions: WM3000 transduced with TERT shRNA; NAC 1 mM for 7 days
Method: Supplementary FIGS. 6a-b. […] NRAS mutant melanoma cells WM3000 were transduced with TERT shRNA and treated with NAC […] for 7 days. (Supplementary FIG. 6a) TIFs were assessed by indirect immunofluorescence combined with fluorescence in situ hybridization (FISH). Representative images are shown (scale bar=10 μm). (Supplementary FIG. 6b) Quantification of TIF positive cells. Cells were scored as TIF positive when three or more y-H2AS foci (green) were co-localizing with telomere foci (red). Data represent average of thirteen fields imaged +/−SD.
Supplementary FIGS. 8a-d. NRAS mutant melanoma cells are sensitive to the telomere uncapping agent 6-thio-dG. NRAS^mut melanoma cells were treated with 6-thio-dG for 6, 12 or 18 days. (Supplementary FIG. 8a) Relative cell number was assessed by Cyrstal Violet assay and calculated relative to DMSO-treated cells. […] (Supplementary FIG. 8c) NRAS^mut cells were treated with 6-thio-dG for 7 days and telomere-induced foci (TIF) were determined by indirect immunofluorescence combined with fluorescence in situ hybridization (FISH). […] (Supplementary FIG. 8d) Quantification of TIF assay. Cells were scored as TIF-positive when four or more γ-H2AX foci (green) were co-localizing with telomere foci (red). […] P values were calculated by unpaired Student's t-test.
DNA damage and telomere dysfunction assay (TIF). […] Mean fluorescence staining was quantified by flow cytometry. […]

CC(C)c1cc(-c2n[nH]c(=O)n2-c2ccc3c(ccn3C)c2)c(O)cc1O [ganetespib]
enhancement of 6-thio-dG efficacy in spheroids [1]: did not substantially enhance the efficacy

Gamitrinib [reference compound]
SOD2 levels [2]: downregulate SOD2 levels | cell death [3]: did not induce substantial death | cell death [4]: triggered significant death | cytotoxic effects in TERT depleted cells [5]: enhanced the cytotoxic effects | cell death [6]: did not induce substantial death | anti-cancer efficacy [7]: efficacy | cell death (in words) ([8]; 1 μM 6-thio-dG, 5 μM Gam): highly sensitive | cell death ([8]; Gamitrinib alone, 5 μM): 75-80% | cell death [9]: did not induce cell death | anti-cancer activity as a single agent [10]: limited activity

CC(=O)N[C@@H](CS)C(=O)O [NAC, N-acetyl-L-cysteine]
number of TIF in TERT depleted cells [11]: attenuates TIFs; also recorded: attenuated the number of TIF
